Experimental data taken from patent US20060240048A1 (priority 2002, published 2006).

Biological target: T1, human cannabinoid CB2 receptor (Homo sapiens, UniProt P34972)
T1 construct: expressed in transfected cells; host or cells: Saccharomyces cerevisiae strain MMY23
Test: Cannabinoid CB2 receptor agonist activity, yeast reporter assay (FDGlu fluorescence);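 as to Emax: 100% equals maximal response of reference agonist HU210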
Format: cell-based
Conditions: for Emax: read-out: efficacy value (Emax) at the cloned human cannabinoid CB2 receptor
Procedure: The cannabinoid CB2 receptor agonist activity of the compounds of formula (I) was determined in accordance with the following experimental method.
Yeast (Saccharomyces cerevisiae) cells expressing the human cannabinoid CB2 receptor were generated by integration of an expression cassette into the ura3 chromosomal locus of yeast strain MMY23. This cassette consisted of DNA sequence encoding the human CB2 receptor flanked by the yeast GPD promoter to the 5′ end of CB2 and a yeast transcriptional terminator sequence to the 3′ end of CB2. MMY23 expresses a yeast/mammalian chimeric G-protein alpha subunit in which the C-terminal 5 amino acids of Gpa1 are replaced with the C-terminal 5 amino acids of human Gαi3 (as described in Brown et al. (2000), Yeast 16:11-22). Cells were grown at 30° C. in liquid Synthetic Complete (SC) yeast media (Guthrie and Fink (1991), Methods in Enzymology, Vol. 194) lacking uracil, tryptophan, adenine and leucine to late logarithmic phase (approximately 6 OD600/ml).
Agonists were prepared as 10 mM stocks in DMSO. […] Agonist solutions in DMSO (1% final assay volume) were transferred into black, clear bottom, microtitre plates from NUNC (96- or 384-well). […] This mixture (50 ul per well for 384-well plates, 200 ul per well for 96-well plates) was added to agonist in the assay plates (Multidrop 384, Labsystems). After incubation at 30° C. for 24 hours, fluorescence resulting from degradation of FDGlu to fluorescein due to exoglucanase, an endogenous yeast enzyme produced during agonist-stimulated cell growth, was determined using a Spectrofluor microtitre plate reader (Tecan; excitation wavelength: 485 nm; emission wavelength: 535 nm). Fluorescence was plotted against compound concentration and iteratively curve fitted using a four parameter fit to generate a concentration effect value.
where Max[compound X] and Min[compound X] are the fitted maximum and minimum respectively from the concentration effect curve for compound X, and Max[HU210] and Min[HU210] are the fitted maximum and minimum respectively from the concentration effect curve for (6aR,10aR)-3-(1,1′-Dimethylheptyl)-6a,7,10,10a-tetrahydro-1-hydroxy-6,6-dimethyl-6H-dibenzo[b,d]pyran-9-methanol (HU210; available from Tocris). Equieffective molar ratio (EMR) values were calculated from the equation EMR=EC50 [compound X]/EC50 [HU210]
Where EC50 [compound X] is the EC50 of compound X and EC50 [HU210] is the EC50 of HU210.

T1 sequence (P34972 whole entry): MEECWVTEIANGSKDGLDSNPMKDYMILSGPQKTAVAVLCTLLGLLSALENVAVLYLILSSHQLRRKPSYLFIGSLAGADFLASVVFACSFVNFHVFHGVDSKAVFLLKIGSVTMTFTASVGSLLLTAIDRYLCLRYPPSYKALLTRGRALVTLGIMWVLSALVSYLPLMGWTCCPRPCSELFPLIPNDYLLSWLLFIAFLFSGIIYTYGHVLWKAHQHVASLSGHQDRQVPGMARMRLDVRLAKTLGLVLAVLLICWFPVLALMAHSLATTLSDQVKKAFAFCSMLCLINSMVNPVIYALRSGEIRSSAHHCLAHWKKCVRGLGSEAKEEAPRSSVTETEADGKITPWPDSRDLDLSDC

SMILES | EC50 | Emax
O=C(NCC1CCCC1)c1cnc(Nc2ccccc2)cc1C(F)(F)F [Example 108, N-Cyclopentylmethyl-6-phenylamino-4-trifluoro-methyl-nicotinamide] | < 300 nM | > 50%
Cc1cc(Cl)ccc1Nc1cc(C(C)C)c(C(=O)NCC2CCOCC2)cn1 [Example 244, 6-(4-Chloro-2-methyl-phenylamino)-4-isopropyl-N-(tetrahydro-pyran-4-ylmethyl)-nicotinamide] | < 300 nM | > 50%
O=C(NCC1CCCC1)c1cnc(Nc2ccc(Cl)cc2Cl)cc1C(F)(F)F [Example 141, N-Cyclopentylmethyl-6-(2,4-dichloro-phenylamino)-4-tri-fluoromethyl-nicotinamide] |  | > 50%
CC(C)c1cc(Nc2cccc(Br)c2)ncc1C(=O)NCC1CCC1 [Example 33, 6-(3-Bromo-phenylamino)-N-cyclobutylmethyl-4-isopropyl-nicotinamide] | < 300 nM | > 50%
O=C(NCC1CCCCC1)c1cnc(Nc2cccc(Cl)c2)cc1C(F)(F)F [Example 1, 2-(3-Chlorophenylamino)-4-trifluoromethylpyridine-5-carboxylic acid cyclohexylmethyl amide] |  | > 50%
CC(C)c1cc(Nc2cccc(F)c2)ncc1C(=O)NCC1CCCCC1 [Example 10, N-Cyclohexylmethyl-6-(3-fluoro-phenylamino)-4-isopropyl-nicotinamide] | < 300 nM | > 50%
O=C(NCC1CCC1)c1cnc(Nc2cccc(F)c2)cc1C(F)(F)F [Example 129, N-Cyclobutylmethyl-6-(3-fluoro-phenylamino)-4-tri-fluoromethyl-nicotinamide] | < 300 nM | > 50%
CC(C)c1cc(Nc2ccc(Cl)cc2Cl)ncc1C(=O)NCC1CCC1 [Example 250, N-Cyclobutylmethyl-6-(2,4-dichloro-phenylamino)-4-isopropyl-nicotinamide] | < 300 nM | > 50%
O=C(NCC1CCOCC1)c1cnc(Nc2cc(Cl)cc(Cl)c2)cc1C(F)(F)F [Example 147, N-(Tetrahydropyran-4-yl-methyl)-6-(3,5-dichloro-phenylamino)-4-trifluoro-methyl-nicotinamide] | < 300 nM | > 50%
CC(C)c1cc(Nc2cccc(Cl)c2)ncc1C(=O)NCC1CCCCC1 [Example 2, 6-(3-Chlorophenylamino)-N-cyclohexylmethyl-4-isopropylnicotinamide] | < 300 nM | > 50%
O=C(NCC1CCCC1)c1cnc(Nc2cccc(Cl)c2)cc1C(F)(F)F [Example 114, N-Cyclopentylmethyl-6-(3-chlorophenylamino)-4-tri-fluoromethyl-nicotinamide] | < 300 nM | > 50%
O=C(NCC1CCCC1)c1cnc(Nc2ccc(F)cc2Cl)cc1C(F)(F)F [Example 164, N-Cyclopentylmethyl-6-(2-Chloro-4-fluoro-phenyl-amino)-4-trifluoromethyl-nicotinamide] | < 300 nM | > 50%
CC(C)c1cc(Nc2cccc(Cl)c2)ncc1C(=O)NC1CCOCC1 [Example 58, 6-(3-Chloro-phenylamino)-4-isopropyl-N-(tetrahydro-pyran-4-yl)-nicotinamide] |  | > 50%
O=C(NCC1CCS(=O)(=O)C1)c1cnc(Nc2cccc(Cl)c2)cc1C(F)(F)F (stereo not shown) [Example 106, 6-(3-Chloro-phenylamino)-N-(1,1-dioxo-tetrahydrothiophen-3-ylmethyl)-4-trifluoromethyl-nicotinamide] | < 300 nM | > 50%
CC(C)c1nc(Nc2ccc(Cl)cc2Cl)ccc1C(=O)NCC1CCCC1 [Example 213, 6-(2,4-Dichloro-phenylamino)-N-cyclopentylmethyl-2-isopropyl-nicotinamide] | < 300 nM | > 50%
CC(C)c1cc(Nc2ccc(F)cc2Cl)ncc1C(=O)NCC1CCC1 [Example 253, 6-(2-Chloro-4-fluoro-phenylamino)-N-cyclobutylmethyl-4-isopropyl-nicotinamide] | < 300 nM | > 50%
CC(C)(C)c1cc(Nc2cccc(Cl)c2)ncc1C(=O)NCC1CCCCC1 [Example 69, 4-tert-Butyl-6-(3-chloro-phenylamino)-N-cyclohexylmethyl-nicotinamide] | < 300 nM | > 50%

SMILES | EC50 | Emax
O=C(NCC1CCCC1)c1cnc(Nc2cc(Cl)cc(Cl)c2)cc1C(F)(F)F [Example 149, N-Cyclopentylmethyl-6-(3,5-dichloro-phenylamino)-4-tri-fluoromethyl-nicotinamide] | < 300 nM | > 50%
CC(C)c1cc(Nc2ccc(Cl)c(Cl)c2)ncc1C(=O)NCC1CCC1 [Example 251, N-Cyclobutylmethyl-6-(3,4-dichtoro-phenylamino)-4-isopropyl-nicotinamide] | < 300 nM | > 50%
O=C(NC1CCC1)c1cnc(Nc2cc(Cl)cc(Cl)c2)cc1C(F)(F)F [Example 148, N-Cyclobutyl-6-(3,5-dichloro-phenylamino)-4-trifluoro-methyl-nicotinamide] | < 300 nM | > 50%
CC(C)c1cc(Nc2cccc(OC(F)(F)F)c2)ncc1C(=O)NCC1CCCCC1 [Example 15, N-Cyclohexylmethyl-4-isopropyl-6-(3-trifluoromethoxy-phenylamino)-nicotinamide] | < 300 nM | > 50%
O=C(NCC1CCC1)c1cnc(Nc2cc(Cl)cc(Cl)c2)cc1C(F)(F)F [Example 150, N-Cyclobutylmethyl-6-(3,5-dichloro-phenylamino)-4-tri-fluoromethyl-nicotinamide] | < 300 nM | > 50%
CC(C)c1cc(Nc2cccc(Cl)c2)ncc1C(=O)N1CCCCC1 [Example 55, 1-[6-(3-Chloro-phenylamino)-4-isopropyl-pyridin-3-yl]-1-piperidin-1-yl-methanone] | < 300 nM | > 50%
CC(C)c1cc(Nc2cccc(Cl)c2Cl)ncc1C(=O)NCC1CCC1 [Example 252, N-Cyclobutylmethyl-6-(2,3-dichloro-phenylamino)-4-isopropyl-nicotinamide] | < 300 nM | > 50%
CC(C)c1cc(Nc2cc(F)cc(F)c2)ncc1C(=O)NCC1CCOCC1 [Example 242, 6-(3,5-Difluoro-phenylamino)-4-isopropyl-N-(tetrahydro-pyran-4-ylmethyl)-nicotinamide] | < 300 nM | > 50%
CC(C)c1cc(Nc2ccc(F)cc2Cl)ncc1C(=O)NCC1CCOCC1 [Example 243, 6-(2-Chloro-4-fluoro-phenylamino)-4-isopropyl-N-(tetrahydro-pyran-4-ylmethyl)-nicotinamide] | < 300 nM | > 50%
CC(C)c1cc(Nc2cccc(F)c2)ncc1C(=O)NCC1CCC1 [Example 34, N-Cyclobutylmethyl-6-(3-fluoro-phenylamino)-4-isopropyl-nicotinamide] | < 300 nM | > 50%
Cc1ccc(Nc2cc(C(C)C)c(C(=O)NCC3CCOCC3)cn2)cc1Cl [Example 85] | < 300 nM | > 50%
O=C(NCC1CCC1)c1cnc(Nc2ccc(Cl)cc2F)cc1C(F)(F)F [Example 160, N-Cyclobutylmethyl-6-(2-fluoro-4-chloro-phenyl-amino)-4-trifluoromethyl-nicotinamide] | < 300 nM | > 50%
CC(C)c1cc(Nc2cc(F)ccc2Br)ncc1C(=O)NCC1CCOCC1 [Example 235, 6-(2-Bromo-5-fluoro-phenylamino)-4-isopropyl-N-(tetrahydro-pyran-4-ylmethyl)-nicotinamide] | < 300 nM | > 50%
CC(C)c1cc(Nc2ccc(C#N)cc2F)ncc1C(=O)NCC1CCOCC1 [Example 97, 6-(4-Cyano-2-fluoro-phenylamino)-4-isopropyl-N-(tetrahydro-pyran-4-ylmethyl)-nicotinamide] |  | > 50%
CC(C)c1cc(Nc2cc(Cl)ccc2F)ncc1C(=O)NCC1CCC1 [Example 266, 6-(5-Chloro-2-fluoro-phenylamino)-N-cyclobutylmethyl-4-isopropyl-nicotinamide] | < 300 nM | > 50%
CC(C)(C)c1cc(Nc2cccc(Cl)c2)ncc1C(=O)NCC1CCOCC1 [Example 71, 4-tert-Butyl-6-(3-phenylamino)-N-(tetrahydro-pyran-4-ylmethyl)-nicotinamide] | < 300 nM | > 50%
CC(C)c1cc(Nc2ccc(Cl)cc2F)ncc1C(=O)NCC1CCCC1 [Example 91, 6-(4-Chloro-2-fluoro-phenylamino)-N-cyclopentylmethyl-4-isopropyl-nicotinamide] | < 300 nM | > 50%
